According to patent US12065466B2, “Methods and compositions for protein sequencing” (Quantum-Si Incorporated, priority 2020, dated 2024):
Entries after “also recorded” stand apart in the source; their conditions may differ. Square brackets hold non-standard residues; d marks the D form. Ends that are not written are not given here. Lys(N3) = [N-]=[N+]=NCCCC[C@H](N)C(=O)O

Experiments:
[1] = target: T1, rat aminopeptidase N (Rat APN) (Rattus norvegicus, UniProt P15684); experiment: Terminal amino acid cleavage of peptide-linker conjugates by Rat APN (LCMS); assay type: biochemical; settings: monitored by LCMS
T1 sequence (P15684 1-965): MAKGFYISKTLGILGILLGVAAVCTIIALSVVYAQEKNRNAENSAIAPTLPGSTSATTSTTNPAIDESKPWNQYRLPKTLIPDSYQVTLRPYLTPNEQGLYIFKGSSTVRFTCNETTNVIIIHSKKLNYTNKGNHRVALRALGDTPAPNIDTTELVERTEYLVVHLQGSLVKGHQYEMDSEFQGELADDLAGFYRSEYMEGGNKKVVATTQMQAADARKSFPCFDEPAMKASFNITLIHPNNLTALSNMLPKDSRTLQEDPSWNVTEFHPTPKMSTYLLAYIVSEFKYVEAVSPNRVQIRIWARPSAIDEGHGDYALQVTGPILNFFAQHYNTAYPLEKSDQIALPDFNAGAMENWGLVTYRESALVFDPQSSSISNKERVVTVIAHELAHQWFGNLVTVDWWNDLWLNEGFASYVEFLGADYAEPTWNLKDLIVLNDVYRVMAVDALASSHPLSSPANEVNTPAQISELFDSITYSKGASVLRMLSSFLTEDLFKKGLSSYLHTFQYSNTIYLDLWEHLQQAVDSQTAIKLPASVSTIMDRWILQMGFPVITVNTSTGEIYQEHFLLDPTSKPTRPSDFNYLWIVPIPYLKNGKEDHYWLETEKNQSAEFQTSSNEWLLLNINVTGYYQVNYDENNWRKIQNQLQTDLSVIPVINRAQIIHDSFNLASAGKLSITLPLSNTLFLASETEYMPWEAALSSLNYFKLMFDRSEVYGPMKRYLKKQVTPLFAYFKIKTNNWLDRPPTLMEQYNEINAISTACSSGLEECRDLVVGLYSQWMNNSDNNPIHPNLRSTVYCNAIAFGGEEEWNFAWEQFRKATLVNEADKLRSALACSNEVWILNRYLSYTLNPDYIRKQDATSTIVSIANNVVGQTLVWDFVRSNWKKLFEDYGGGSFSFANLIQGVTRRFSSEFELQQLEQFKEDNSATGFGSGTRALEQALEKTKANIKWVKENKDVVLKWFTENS
Protocol: (§1) The peptide-linker conjugates were evaluated for amino acid cleavage at peptide N-termini by N-terminal aminopeptidases (Table 6, below).
(§2) The peptide-linker conjugates shown in Table 6 were incubated with either proline iminopeptidase (“PIP”) or rat aminopeptidase N (“Rat APN”), and peptide cleavage was monitored by LCMS. All other cleavage reactions were measured in a similar manner.

[2] = system: proline iminopeptidase (PIP); experiment: Terminal amino acid cleavage of peptide-linker conjugates by PIP (LCMS); assay type: biochemical; settings: monitored by LCMS
Protocol: as §1, §2

[3] = system: amino acid at a terminal position of a polypeptide; settings: Table 2; amino acid identity at a terminal position (phosphotyrosine also internal); inferred from literature and/or demonstrated by the inventors; cited from earlier work

Row | Cleaved by Rat APN [1] | Substance | Binding Pref. [3] | also measured
1 | No | 2: peptide-linker conjugate: KKMKKM{LYS(N3)} (SEQ ID NO. 224), oligo linker (KKMKKM[Lys(N3)]; also: oligo linker, attachment not given here) [Entry 2] | – | –
2 | No | 3: peptide-linker conjugate: KKMKKM{LYS(N3)} (SEQ ID NO. 225), oligo-PEG linker (KKMKKM[Lys(N3)]; also: oligo-PEG linker, attachment not given here) [Entry 3] | – | –
3 | Yes | 4: peptide-linker conjugate: KKMKKM{LYS(N3)} (SEQ ID NO. 226), PEG4 linker (KKMKKM[Lys(N3)]; also: PEG4 linker, attachment not given here) [Entry 4] | – | –
4 | Yes | 6: peptide-linker conjugate: FFMFFM{LYS(N3)} (SEQ ID NO. 228), oligo linker (FFMFFM[Lys(N3)]; also: oligo linker, attachment not given here) [Entry 6] | – | –
5 | Yes | 7: peptide-linker conjugate: AAMAAM{LYS(N3)} (SEQ ID NO. 229), oligo linker (AAMAAM[Lys(N3)]; also: oligo linker, attachment not given here) [Entry 7] | – | –
6 | – | 8: peptide-linker conjugate: FPFPFP{LYS(N3)} (SEQ ID NO. 230), oligo linker (FPFPFP[Lys(N3)]; also: oligo linker, attachment not given here) [Entry 8] | – | Cleaved by PIP [2]: Yes
7 | – | 9: peptide-linker conjugate: DPDPDP{LYS(N3)} (SEQ ID NO. 231), oligo linker (DPDPDP[Lys(N3)]; also: oligo linker, attachment not given here) [Entry 9] | – | Cleaved by PIP [2]: Yes
8 | – | 10: peptide-linker conjugate: KPKPKP{LYS(N3)} (SEQ ID NO. 232), oligo linker (KPKPKP[Lys(N3)]; also: oligo linker, attachment not given here) [Entry 10] | – | Cleaved by PIP [2]: No
9 | – | 11: peptide-linker conjugate: KPKPKP{LYS(N3)} (SEQ ID NO. 233), PEG4 linker (KPKPKP[Lys(N3)]; also: PEG4 linker, attachment not given here) [Entry 11] | – | Cleaved by PIP [2]: Yes
10 | Yes | Entry 5: peptide-linker conjugate: DDMDDM{LYS(N3)} (SEQ ID NO. 227), oligo linker (DDMDDM[Lys(N3)]; also: oligo linker, attachment not given here) | – | –
11 | – | H. sapiens Src tyrosine kinase SH2 domain: SEQ ID NO: 118 | phospho-Y | –
12 | – | H. sapiens p62 fragment 1-180: SEQ ID NO: 121 | K, R, H,; also recorded: W, F, Y | –
13 | – | H. sapiens p62 fragment 1-310: SEQ ID NO: 120 | K, R, H,; also recorded: W, F, Y | –
14 | – | H. sapiens p62 fragment 126-180: SEQ ID NO: 122 | K, R, H,; also recorded: W, F, Y | –
15 | – | Rattus norvegicus p62 protein: SEQ ID NO: 124 | K, R, H,; also recorded: W, F, Y | –
